pIC50: −log10 of the molar value.
Columns and labels:
[1] = molecular target: 5'-AMP-activated protein kinase catalytic subunit alpha-1 (Homo sapiens, UniProt Q13131); test: Cellular mechanistic pACC assay using Colo-320 cells; format: cell-based
[2] = system: Tyrosine-protein kinase ABL1 (Homo sapiens), P00519 [F317L]; settings: Compound concentration 1000.0 nM
[3] = system: Tyrosine-protein kinase ABL1 (Homo sapiens), P00519 [H396P]; settings: Compound concentration 1000.0 nM
[4] = molecular target: Casein kinase I isoform alpha (Homo sapiens) (UniProt P48729); settings: Compound concentration 1000.0 nM
[5] = molecular target: Eukaryotic translation initiation factor 2-alpha kinase 1 (Homo sapiens) (UniProt Q9BQI3); settings: Compound concentration 1000.0 nM
[6] = molecular target: T1, Ephrin type-B receptor 4 (Homo sapiens) (UniProt P54760); settings: Compound concentration 1000.0 nM
T1 sequence (whole entry): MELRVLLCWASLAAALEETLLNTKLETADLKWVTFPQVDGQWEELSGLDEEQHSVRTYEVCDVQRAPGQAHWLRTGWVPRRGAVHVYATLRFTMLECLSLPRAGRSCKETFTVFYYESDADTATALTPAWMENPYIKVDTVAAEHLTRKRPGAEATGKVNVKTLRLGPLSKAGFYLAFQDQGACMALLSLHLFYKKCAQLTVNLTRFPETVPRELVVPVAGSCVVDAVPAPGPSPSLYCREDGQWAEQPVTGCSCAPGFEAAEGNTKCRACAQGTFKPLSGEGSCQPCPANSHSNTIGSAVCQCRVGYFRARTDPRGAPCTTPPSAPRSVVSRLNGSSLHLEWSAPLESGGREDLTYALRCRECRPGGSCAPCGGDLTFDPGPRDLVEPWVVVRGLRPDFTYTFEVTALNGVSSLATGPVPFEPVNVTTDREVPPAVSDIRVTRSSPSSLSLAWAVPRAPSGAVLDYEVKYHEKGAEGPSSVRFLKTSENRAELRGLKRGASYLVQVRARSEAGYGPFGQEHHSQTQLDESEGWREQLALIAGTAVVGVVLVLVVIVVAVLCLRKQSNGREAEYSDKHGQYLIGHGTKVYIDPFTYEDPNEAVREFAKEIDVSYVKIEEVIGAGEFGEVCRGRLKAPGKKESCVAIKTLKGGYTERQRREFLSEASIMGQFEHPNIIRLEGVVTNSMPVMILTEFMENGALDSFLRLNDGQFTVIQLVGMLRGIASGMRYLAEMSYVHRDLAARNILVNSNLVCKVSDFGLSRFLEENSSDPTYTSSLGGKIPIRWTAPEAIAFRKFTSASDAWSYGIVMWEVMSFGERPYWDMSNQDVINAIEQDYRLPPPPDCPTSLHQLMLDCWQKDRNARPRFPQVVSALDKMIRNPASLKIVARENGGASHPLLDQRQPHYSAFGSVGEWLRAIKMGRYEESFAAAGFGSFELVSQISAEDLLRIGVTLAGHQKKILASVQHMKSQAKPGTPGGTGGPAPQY

[7] = system: Receptor-type tyrosine-protein kinase FLT3 (Homo sapiens), P36888 [D835H]; settings: Compound concentration 1000.0 nM
[8] = molecular target: T2, Rhodopsin kinase GRK1 (Homo sapiens) (UniProt Q15835); settings: Compound concentration 1000.0 nM
T2 sequence (whole entry): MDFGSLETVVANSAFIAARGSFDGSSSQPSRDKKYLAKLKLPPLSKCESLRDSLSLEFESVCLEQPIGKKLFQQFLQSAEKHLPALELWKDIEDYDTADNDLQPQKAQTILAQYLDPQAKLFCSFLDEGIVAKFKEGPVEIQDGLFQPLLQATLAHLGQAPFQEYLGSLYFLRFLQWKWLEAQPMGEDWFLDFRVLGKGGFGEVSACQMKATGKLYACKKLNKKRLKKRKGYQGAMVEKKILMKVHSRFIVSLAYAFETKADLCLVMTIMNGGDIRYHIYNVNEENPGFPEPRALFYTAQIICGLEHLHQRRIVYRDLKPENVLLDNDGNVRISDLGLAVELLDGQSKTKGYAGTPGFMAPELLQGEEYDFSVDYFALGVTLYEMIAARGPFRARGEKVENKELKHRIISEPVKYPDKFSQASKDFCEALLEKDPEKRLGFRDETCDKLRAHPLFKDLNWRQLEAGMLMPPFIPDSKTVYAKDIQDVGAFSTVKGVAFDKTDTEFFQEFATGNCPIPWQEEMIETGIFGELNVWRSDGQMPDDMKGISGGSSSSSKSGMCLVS

[9] = molecular target: G protein-coupled receptor kinase 4 (Homo sapiens) (UniProt P32298); settings: Compound concentration 1000.0 nM
[10] = system: Mast/stem cell growth factor receptor Kit (Homo sapiens), P10721 [V559D,T670I]; settings: Compound concentration 1000.0 nM
[11] = system: Mast/stem cell growth factor receptor Kit (Homo sapiens), P10721 [V559D,V654A]; settings: Compound concentration 1000.0 nM
[12] = molecular target: Serine/threonine-protein kinase NIM1 (Homo sapiens) (UniProt Q8IY84); settings: Compound concentration 1000.0 nM
[13] = molecular target: Cyclin-dependent kinase 18 (Homo sapiens) (UniProt Q07002); settings: Compound concentration 1000.0 nM
[14] = system: Phosphatidylinositol 4,5-bisphosphate 3-kinase catalytic subunit alpha isoform (Homo sapiens), P42336 [H1047L]; settings: Compound concentration 1000.0 nM
[15] = molecular target: T3, cAMP-dependent protein kinase catalytic subunit PRKX (Homo sapiens) (UniProt P51817); settings: Compound concentration 1000.0 nM
T3 sequence (whole entry): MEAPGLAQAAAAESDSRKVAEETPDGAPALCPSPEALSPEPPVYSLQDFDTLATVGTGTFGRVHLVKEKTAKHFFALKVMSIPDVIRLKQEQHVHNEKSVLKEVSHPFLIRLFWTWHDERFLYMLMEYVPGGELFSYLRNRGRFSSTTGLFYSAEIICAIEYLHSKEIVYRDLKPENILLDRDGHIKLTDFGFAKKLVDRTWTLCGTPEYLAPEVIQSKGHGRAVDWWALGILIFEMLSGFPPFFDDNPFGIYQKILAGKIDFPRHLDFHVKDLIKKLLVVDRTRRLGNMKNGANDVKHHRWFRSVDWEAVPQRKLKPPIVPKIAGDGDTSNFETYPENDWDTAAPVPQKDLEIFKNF

[16] = molecular target: RAF proto-oncogene serine/threonine-protein kinase (Homo sapiens) (UniProt P04049); settings: Compound concentration 1000.0 nM
[17] = molecular target: Serine/threonine-protein kinase SIK2 (Homo sapiens) (UniProt Q9H0K1); settings: Compound concentration 1000.0 nM
[18] = molecular target: Serine/threonine-protein kinase 16 (Homo sapiens) (UniProt O75716); settings: Compound concentration 1000.0 nM
[19] = molecular target: Tyrosine-protein kinase receptor Tie-1 (Homo sapiens) (UniProt P35590); settings: Compound concentration 1000.0 nM
Tyrosine-protein kinase receptor Tie-1 (Homo sapiens), sequence (P35590 whole entry): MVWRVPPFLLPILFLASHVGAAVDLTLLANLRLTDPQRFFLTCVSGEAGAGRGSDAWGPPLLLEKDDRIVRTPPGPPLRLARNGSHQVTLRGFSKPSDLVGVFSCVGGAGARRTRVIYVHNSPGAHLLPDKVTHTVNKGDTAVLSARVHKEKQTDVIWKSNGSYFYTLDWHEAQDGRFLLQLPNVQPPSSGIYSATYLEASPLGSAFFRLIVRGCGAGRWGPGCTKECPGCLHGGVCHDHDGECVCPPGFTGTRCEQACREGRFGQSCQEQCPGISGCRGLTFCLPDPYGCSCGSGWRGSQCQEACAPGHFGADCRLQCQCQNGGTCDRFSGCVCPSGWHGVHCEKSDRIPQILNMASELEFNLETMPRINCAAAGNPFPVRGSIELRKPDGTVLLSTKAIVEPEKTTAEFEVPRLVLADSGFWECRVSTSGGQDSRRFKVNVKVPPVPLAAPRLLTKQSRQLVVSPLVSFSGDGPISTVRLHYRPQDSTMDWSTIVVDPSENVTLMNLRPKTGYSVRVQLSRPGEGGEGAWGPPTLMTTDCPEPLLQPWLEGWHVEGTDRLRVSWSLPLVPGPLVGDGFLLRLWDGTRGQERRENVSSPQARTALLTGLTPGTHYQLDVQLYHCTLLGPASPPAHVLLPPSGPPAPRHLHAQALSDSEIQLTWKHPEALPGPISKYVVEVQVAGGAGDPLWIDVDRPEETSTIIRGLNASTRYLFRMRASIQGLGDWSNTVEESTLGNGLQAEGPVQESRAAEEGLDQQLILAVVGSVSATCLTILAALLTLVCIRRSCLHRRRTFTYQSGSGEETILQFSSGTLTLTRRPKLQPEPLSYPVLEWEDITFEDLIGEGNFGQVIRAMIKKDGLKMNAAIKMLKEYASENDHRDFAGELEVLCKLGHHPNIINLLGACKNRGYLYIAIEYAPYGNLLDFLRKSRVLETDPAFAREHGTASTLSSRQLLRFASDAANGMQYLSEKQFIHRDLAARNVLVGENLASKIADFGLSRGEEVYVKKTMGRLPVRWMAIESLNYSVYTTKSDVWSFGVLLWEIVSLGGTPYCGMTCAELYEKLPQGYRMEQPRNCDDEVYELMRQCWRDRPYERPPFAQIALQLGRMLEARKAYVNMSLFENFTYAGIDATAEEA

G protein-coupled receptor kinase 4 (Homo sapiens), sequence (P32298 whole entry, looked up): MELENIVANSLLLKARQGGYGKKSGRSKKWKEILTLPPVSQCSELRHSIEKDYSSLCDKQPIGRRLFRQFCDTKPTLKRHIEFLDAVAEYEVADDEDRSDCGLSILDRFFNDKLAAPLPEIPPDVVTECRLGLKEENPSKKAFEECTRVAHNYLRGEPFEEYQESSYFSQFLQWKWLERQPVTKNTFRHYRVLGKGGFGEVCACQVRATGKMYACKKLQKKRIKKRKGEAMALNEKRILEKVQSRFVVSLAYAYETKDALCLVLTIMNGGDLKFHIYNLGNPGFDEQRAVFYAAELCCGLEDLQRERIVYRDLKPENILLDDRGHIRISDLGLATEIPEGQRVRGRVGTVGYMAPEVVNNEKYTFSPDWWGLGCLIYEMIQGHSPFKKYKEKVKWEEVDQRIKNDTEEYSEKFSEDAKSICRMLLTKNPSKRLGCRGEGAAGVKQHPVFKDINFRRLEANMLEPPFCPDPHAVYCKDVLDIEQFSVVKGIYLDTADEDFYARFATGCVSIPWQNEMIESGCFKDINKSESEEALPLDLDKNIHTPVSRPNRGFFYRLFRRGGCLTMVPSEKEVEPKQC
RAF proto-oncogene serine/threonine-protein kinase (Homo sapiens), sequence (P04049 whole entry): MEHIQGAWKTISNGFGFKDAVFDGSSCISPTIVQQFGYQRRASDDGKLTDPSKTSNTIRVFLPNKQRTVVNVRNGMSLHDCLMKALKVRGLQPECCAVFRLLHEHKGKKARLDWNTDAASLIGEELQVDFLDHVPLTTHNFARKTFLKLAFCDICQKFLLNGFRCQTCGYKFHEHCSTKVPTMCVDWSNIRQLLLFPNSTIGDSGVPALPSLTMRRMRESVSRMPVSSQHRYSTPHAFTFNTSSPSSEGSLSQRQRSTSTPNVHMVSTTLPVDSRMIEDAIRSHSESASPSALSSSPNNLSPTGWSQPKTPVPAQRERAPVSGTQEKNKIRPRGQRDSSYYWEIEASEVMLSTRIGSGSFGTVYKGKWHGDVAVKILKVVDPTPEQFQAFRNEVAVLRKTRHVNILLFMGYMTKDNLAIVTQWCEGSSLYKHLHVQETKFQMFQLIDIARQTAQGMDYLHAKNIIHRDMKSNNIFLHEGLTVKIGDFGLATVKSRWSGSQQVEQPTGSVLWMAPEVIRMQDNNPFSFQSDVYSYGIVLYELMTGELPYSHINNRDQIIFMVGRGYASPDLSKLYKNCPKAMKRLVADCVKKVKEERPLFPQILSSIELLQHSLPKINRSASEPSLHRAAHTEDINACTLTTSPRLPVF
Serine/threonine-protein kinase SIK2 (Homo sapiens), sequence (Q9H0K1 whole entry, looked up): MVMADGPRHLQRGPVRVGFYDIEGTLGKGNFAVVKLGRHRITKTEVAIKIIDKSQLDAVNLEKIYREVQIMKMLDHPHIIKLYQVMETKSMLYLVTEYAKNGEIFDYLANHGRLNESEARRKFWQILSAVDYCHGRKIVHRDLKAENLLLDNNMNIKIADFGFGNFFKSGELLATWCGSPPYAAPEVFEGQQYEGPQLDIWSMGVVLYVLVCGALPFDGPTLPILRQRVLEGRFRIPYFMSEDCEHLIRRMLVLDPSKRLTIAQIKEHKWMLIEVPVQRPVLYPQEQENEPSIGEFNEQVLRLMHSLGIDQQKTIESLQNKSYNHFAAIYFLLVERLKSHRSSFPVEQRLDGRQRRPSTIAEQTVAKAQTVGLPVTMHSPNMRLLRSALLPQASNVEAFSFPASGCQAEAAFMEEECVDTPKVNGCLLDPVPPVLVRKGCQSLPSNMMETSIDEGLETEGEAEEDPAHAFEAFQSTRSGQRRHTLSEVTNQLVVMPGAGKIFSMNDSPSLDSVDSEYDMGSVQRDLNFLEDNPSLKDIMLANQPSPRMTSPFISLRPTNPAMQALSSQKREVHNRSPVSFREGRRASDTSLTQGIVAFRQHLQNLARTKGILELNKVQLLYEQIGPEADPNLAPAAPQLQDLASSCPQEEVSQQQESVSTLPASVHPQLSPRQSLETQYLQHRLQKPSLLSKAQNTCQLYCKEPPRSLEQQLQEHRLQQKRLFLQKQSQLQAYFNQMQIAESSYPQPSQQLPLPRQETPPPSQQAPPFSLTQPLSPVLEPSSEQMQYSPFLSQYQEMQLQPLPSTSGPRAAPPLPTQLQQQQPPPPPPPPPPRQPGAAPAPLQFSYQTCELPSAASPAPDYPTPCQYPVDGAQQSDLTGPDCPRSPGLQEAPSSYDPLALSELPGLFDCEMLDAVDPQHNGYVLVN
Phosphatidylinositol 4,5-bisphosphate 3-kinase catalytic subunit alpha isoform (Homo sapiens), P42336 [H1047L], sequence (P42336 whole entry H1047L, canonical isoform): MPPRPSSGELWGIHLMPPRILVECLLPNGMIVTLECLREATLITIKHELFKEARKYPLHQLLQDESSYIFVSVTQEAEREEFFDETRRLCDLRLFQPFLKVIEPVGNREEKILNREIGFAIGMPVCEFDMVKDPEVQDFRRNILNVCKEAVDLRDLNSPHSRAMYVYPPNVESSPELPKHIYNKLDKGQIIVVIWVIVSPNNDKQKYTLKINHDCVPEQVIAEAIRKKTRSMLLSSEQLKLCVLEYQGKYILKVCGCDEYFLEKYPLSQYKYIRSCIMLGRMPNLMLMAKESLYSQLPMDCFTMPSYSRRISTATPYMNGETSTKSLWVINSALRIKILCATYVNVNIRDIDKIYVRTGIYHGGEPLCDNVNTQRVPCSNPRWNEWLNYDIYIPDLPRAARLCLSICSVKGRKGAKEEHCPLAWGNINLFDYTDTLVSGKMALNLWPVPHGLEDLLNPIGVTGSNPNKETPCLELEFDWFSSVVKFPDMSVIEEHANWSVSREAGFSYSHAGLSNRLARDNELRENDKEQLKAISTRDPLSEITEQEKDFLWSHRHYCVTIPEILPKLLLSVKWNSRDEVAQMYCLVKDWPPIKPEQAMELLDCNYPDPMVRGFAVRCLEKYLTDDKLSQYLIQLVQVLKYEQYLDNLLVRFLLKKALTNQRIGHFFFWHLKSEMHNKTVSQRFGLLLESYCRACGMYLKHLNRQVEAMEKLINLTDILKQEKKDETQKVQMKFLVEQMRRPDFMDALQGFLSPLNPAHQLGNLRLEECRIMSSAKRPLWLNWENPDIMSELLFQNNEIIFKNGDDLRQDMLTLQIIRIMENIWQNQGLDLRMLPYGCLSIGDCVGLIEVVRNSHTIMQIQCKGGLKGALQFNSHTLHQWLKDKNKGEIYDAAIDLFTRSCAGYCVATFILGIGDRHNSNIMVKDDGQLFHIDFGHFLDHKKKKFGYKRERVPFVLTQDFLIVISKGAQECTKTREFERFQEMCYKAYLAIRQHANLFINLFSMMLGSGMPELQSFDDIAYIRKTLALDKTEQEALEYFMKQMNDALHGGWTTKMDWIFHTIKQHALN
Serine/threonine-protein kinase 16 (Homo sapiens), sequence (O75716 whole entry): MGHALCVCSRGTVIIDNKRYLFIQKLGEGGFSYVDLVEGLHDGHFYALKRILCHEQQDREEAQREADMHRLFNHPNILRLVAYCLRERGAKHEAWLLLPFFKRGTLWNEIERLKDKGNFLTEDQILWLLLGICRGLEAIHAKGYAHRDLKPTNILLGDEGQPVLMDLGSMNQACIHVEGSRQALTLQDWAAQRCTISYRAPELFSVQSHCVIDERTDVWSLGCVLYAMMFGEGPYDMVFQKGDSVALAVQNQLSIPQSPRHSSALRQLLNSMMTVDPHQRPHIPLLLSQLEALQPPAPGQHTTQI
Casein kinase I isoform alpha (Homo sapiens), sequence (P48729 2-337 limits assumed): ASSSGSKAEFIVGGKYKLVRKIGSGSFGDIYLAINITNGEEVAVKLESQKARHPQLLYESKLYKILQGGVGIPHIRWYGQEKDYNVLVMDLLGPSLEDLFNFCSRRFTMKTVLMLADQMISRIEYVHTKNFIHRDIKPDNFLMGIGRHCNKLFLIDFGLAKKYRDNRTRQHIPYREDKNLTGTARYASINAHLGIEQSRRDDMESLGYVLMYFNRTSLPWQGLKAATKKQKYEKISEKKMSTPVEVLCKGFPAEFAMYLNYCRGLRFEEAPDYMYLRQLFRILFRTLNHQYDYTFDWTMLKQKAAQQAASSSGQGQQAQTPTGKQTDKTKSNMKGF

SMILES	pIC50 [1]	residual activity [2]	residual activity [3]	residual activity [4]	residual activity [5]	residual activity [6]	residual activity [7]	residual activity [8]	residual activity [9]	residual activity [10]	residual activity [11]	residual activity [12]	residual activity [13]	residual activity [14]	residual activity [15]	residual activity [16]	residual activity [17]	residual activity [18]	residual activity [19]	IC50 [1]
CCc1ccccc1C(=O)Nc1n[nH]c2c(C)c(F)c(C3C(C#N)=C(C)N(C)C(C)=C3C#N)cc12 [BAY-3827]	6.41	89%	95%	96%	100%	51%	16%	43%	100%	98%	100%	100%	75%	100%	88%	63%	69%	79%	100%	–
CC1=C(C#N)C(c2ccc3c(c2)c(NC(=O)c2ccccc2C)nn3C)C(C#N)=C(C)N1 [BAY-974]	–	91%	100%	70%	100%	97%	99%	88%	100%	100%	99%	86%	100%	100%	76%	100%	93%	83%	94%	> 30000 nM (not active)
